Where two headings read alike, the source gives them in different places.
How the values were obtained:
Type in all cases: in vivo
Myzus persicae = assay: Green peach aphid (Myzus persicae) systemic test, artificial diet in 96-well microtiter plates; conditions: 72 h, read-out: mortality in comparison with untreated controls
Protocol: If not otherwise specified, the test solutions were prepared as follow:
The active compound was dissolved at the desired concentration in a mixture of 1:1 (vol:vol) distilled water:acetone. The test solution was prepared on the day of use.
B.1 Green Peach Aphid (Myzus persicae)
For evaluating control of green peach aphid (Myzus persicae) through systemic means, the test unit consisted of 96-well-microtiter plates containing liquid artificial diet under an artificial mem brane.
The compounds were formulated using a solution containing 75% v/v water and 25% v/v DMSO. Different concentrations of formulated compounds were pipetted into the aphid diet, using a custom built pipetter, at two replications.
After application, 5-8 adult aphids were placed on the artificial membrane inside the microtiter plate wells. The aphids were then allowed to suck on the treated aphid diet and incubated at about 23±1° C. and about 50±5% relative humidity for 3 days. Aphid mortality and fecundity was then visually assessed.

Aedes aegypti = assay: whole plant or invertebrate; conditions: 48 h, larval mortality, 2 days, read-out: mortality in comparison with untreated controls
Protocol: B.5 Yellow Fever Mosquito (Aedes aegypti)
For evaluating control of yellow fever mosquito (Aedes aegypti) the test unit consisted of 96-well-microtiter plates containing 200 μl of tap water per well and 5-15 freshly hatched A. aegypti larvae.
The active compounds were formulated using a solution containing 75% (v/v) water and 25% (v/v) DMSO. Different concentrations of formulated compounds or mixtures were sprayed onto the insect diet at 2.5 μl, using a custom-built micro atomizer, at two replications.
After application, microtiter plates were incubated at 28±1° C., 80±5% RH for 2 days. Larval mortality was then visually assessed.

Heliothis virescens = assay: Tobacco budworm (Heliothis virescens) egg/larval test on insect diet in 96-well microtiter plates; conditions: 120 h, read-out: mortality in comparison with untreated controls
Protocol: B.2 Tobacco Budworm (Heliothis virescens)
For evaluating control of tobacco budworm (Heliothis virescens), the test unit consisted of 96-well-microtiter plates containing an insect diet and 15-25 H. virescens eggs.
The compounds were formulated using a solution containing 75% v/v water and 25% v/v DMSO. Different concentrations of formulated compounds were sprayed onto the insect diet at 10 μl, using a custom-built micro atomizer, at two replications.
After application, microtiter plates were incubated at about 28±1° C. and about 80±5% relative humidity for 5 days. Egg and larval mortality was then visually assessed.

Anthonomus grandis = assay: Boll weevil (Anthonomus grandis) egg/larval test on insect diet in 96-well microtiter plates; conditions: 120 h, read-out: mortality in comparison with untreated controls
Protocol: B.3 Boll Weevil (Anthonomus grandis)
For evaluating control of boll weevil (Anthonomus grandis), the test unit consisted of 96-well-microtiter plates containing an insect diet and 5-10 A. grandis eggs.
The compounds were formulated using a solution containing 75% v/v water and 25% v/v DMSO. Different concentrations of formulated compounds were sprayed onto the insect diet at 5 μl, using a custom-built micro atomizer, at two replications.
After application, microtiter plates were incubated at about 25±1° C. and about 75±5% relative humidity for 5 days. Egg and larval mortality was then visually assessed.

Spodoptera eridania = assay: Southern armyworm (Spodoptera eridania), 2nd instar larvae, foliar spray on lima bean plants; conditions: 96 h, 2nd instar larvae on sprayed lima bean, 4 days after treatment, read-out: mortality in comparison with untreated controls
Protocol: B.4. Southern Armyworm (Spodoptera eridania), 2nd Instar Larvae
The active compounds were formulated by a Tecan liquid handler in 100% cyclohexanone as a 10,000-ppm solution supplied in tubes. The 10,000-ppm solution was serially diluted in 100% cyclohexanone to make interim solutions. These served as stock solutions for which final dilutions were made by the Tecan in 50% acetone:50% water (v/v) into 10 or 20 ml glass vials. A non-ionic surfactant (Kinetic®) was included in the solution at a volume of 0.01% (v/v). The vials were then inserted into an automated electrostatic sprayer equipped with an atomizing nozzle for application to plants/insects. Lima bean plants (variety Sieva) were grown 2 plants to a pot and selected for treatment at the 1st true leaf stage. Test solutions were sprayed onto the foliage by an auto-mated electrostatic plant sprayer equipped with an atomizing spray nozzle. The plants were dried in the sprayer fume hood and then removed from the sprayer. Each pot was placed into perforated plastic bags with a zip closure. Ten to 11 armyworm larvae were placed into the bag and the bags zipped closed. Test plants were maintained in a growth room at about 25° C. and about 20-40% relative humidity for 4 days, avoiding direct exposure to fluorescent light (14:10 light:dark photoperiod) to prevent trapping of heat inside the bags. Mortality and reduced feeding were assessed 4 days after treatment, compared to untreated control plants.

[1] = 2500 ppm, adult aphids on treated artificial diet, 3 days
[2] = 2500 ppm, egg and larval mortality, 5 days

CC(NC(=O)c1cc(C(F)(F)F)cc(C(F)(F)F)c1)c1nccnc1C(N)=NO (stereo not shown) [I-3, N-[1-[3-[N′-hydroxycarbamimidoyl]pyrazin-2-yl]ethyl]-3,5-bis(trifluoromethyl)benzamide]
≥ 75%: mortality at 2500 ppm (Myzus persicae; [1]) | mortality at 2500 ppm (Aedes aegypti) | mortality at 2500 ppm (Heliothis virescens; [2]) | mortality at 2500 ppm (Anthonomus grandis; [2])

CON=C(N)c1nccnc1C(C)NC(=O)c1cc(C(F)(F)F)cc(C(F)(F)F)c1 (stereo not shown) [I-5, N-[1-[3-[N′-methoxycarbamimidoyl]pyrazin-2-yl]ethyl]-3,5-bis(trifluoromethyl)benzamide]
≥ 75%: mortality at 300 ppm (Spodoptera eridania) | mortality at 2500 ppm (Myzus persicae; [1]) | mortality at 2500 ppm (Aedes aegypti) | mortality at 2500 ppm (Heliothis virescens; [2]) | mortality at 2500 ppm (Anthonomus grandis; [2])

CON=C(C)c1nccnc1C(C)N(CC1CC1)C(=O)c1cc(C(F)(F)F)cc(C2(C#N)CC2)c1 (stereo not shown) [I-9, 3-(1-cyanocyclopropyl)-N-(cyclopropylmethyl)-N-[1-[3-(N-methoxy-C-methyl-carbonimidoyl)pyrazin-2-yl]ethyl]-5-(trifluoromethyl)benzamide]
≥ 75%: mortality at 300 ppm (Spodoptera eridania) | mortality at 2500 ppm (Myzus persicae; [1]) | mortality at 2500 ppm (Aedes aegypti)

CON=C(C)c1nccnc1C(C)N(CC1CC1)C(=O)c1cc(Cl)cc(S(=O)(=O)c2ccc(F)cc2)c1 (stereo not shown) [I-17, 3-chloro-N-(cyclopropylmethyl)-5-(4-fluorophenyl)sulfonyl-N-[1-[3-(N-methoxy-C-methyl-carbonimidoyl)pyrazin-2-yl]ethyl]benzamide]
≥ 75%: mortality at 300 ppm (Spodoptera eridania) | mortality at 2500 ppm (Aedes aegypti) | mortality at 2500 ppm (Anthonomus grandis; [2])

CCN(C)C(=NO)c1nccnc1C(C)NC(=O)c1cc(C(F)(F)F)cc(C(F)(F)F)c1 (stereo not shown) [I-170, N-[1-[3-(N-ethyl-N′-hydroxy-N-methyl-carbamimidoyl)pyrazin-2-yl]ethyl]-3,5-bis(trifluoromethyl)benzamide]
≥ 75%: mortality at 2500 ppm (Myzus persicae) | mortality at 2500 ppm (Aedes aegypti) | mortality at 2500 ppm (Heliothis virescens) | mortality at 2500 ppm (Anthonomus grandis)
